Data on nine molecules can be found in ChEMBL document CHEMBL1201862, “PubChem BioAssay data set” (2004).

Structures are written as SMILES. Active and inactive are the calls of the source.

Test [1] is described as follows: general mammalian cell viability loss – inhibitor set, cherry-pick, set 2, cytotoxicity control for miR-122 modulator project, dose response (AID 720697). In kind it is functional, cell-based.
Test [2] can be described thus: inhibition of bursicon-driven LGR2 cAMP signaling – cell-based, HEK293, CRE-luciferase reporter, cherry pick, dose response (AID 743342). In kind it is functional.
Test [3] is described as follows: general mammalian cell viability loss – activator set, cherry-pick, cytotoxicity control for miR-122 modulator project, dose response (AID 720690).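 Also: HEK293T human cells scored for general mammalian cytotoxicity.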 In kind it is functional, cell-based.
Test [4] is described as follows: activation of miR-122 Renilla sensor silencing – cell-based, Huh7 psiCHECK-miR122, Renilla luciferase, cherry-picked, dose response (AID 651956).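 Also: huh7 hepatoma cells stably carrying a psiCHECK-2 miR-122 sensor plasmid; renilla luciferase signal reporting endogenous miR-122 activity after 48 h compound exposure.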 In kind it is functional.
For test [5], the target named is T1, Tyrosine-protein phosphatase non-receptor type 7 (Homo sapiens, UniProt P35236).
T1 sequence (P35236 whole entry): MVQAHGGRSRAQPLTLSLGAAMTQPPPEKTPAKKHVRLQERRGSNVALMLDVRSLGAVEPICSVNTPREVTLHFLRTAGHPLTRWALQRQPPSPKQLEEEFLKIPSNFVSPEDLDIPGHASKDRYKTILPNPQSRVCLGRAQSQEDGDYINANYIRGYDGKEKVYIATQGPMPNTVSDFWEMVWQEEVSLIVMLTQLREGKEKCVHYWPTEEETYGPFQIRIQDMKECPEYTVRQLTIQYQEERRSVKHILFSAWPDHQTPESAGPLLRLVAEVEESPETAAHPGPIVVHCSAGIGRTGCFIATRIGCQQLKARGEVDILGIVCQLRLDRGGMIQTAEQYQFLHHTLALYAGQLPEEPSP
The test is described as follows: HePTP tyrosine phosphatase activity blockers – biochemical, absorbance, leukemia target, primary screen (AID 521). In kind it is functional.

Test [6] addresses T2, Induced myeloid leukemia cell differentiation protein Mcl-1 (Homo sapiens, UniProt Q07820). The test is described as follows: blockers of MCL1 binding to BIM peptide – biochemical, fluorescence polarization, BIM-BH3 peptide, 1536-well, dose response (AID 2217).
The target in another test is Bcl-2-like protein 1 (Homo sapiens, UniProt Q07817). Briefly: blockers of BCLXL peptide binding – biochemical, fluorescence polarization, 1536-well, selectivity assay for MCL1 inhibitor project, dose response (AID 2218).
Test [7] has as its target T3, Small ubiquitin-related modifier 1 (Homo sapiens, UniProt P63165). The test is described as follows: SUMO1 protein interaction blockers, potency – biochemical, fluorescence polarization, uHTS hits, dose response (AID 624382). In kind it is functional. Conditions: read-out: IC50_Mean.
The target of test [8] is T3, Small ubiquitin-related modifier 1. The test is described as follows: SUMO1 protein-protein binding blockers, potency – biochemical, FRET, dose response (AID 624383). In kind it is functional. Conditions: read-out: IC50_Mean.
Test [9] addresses T4, Carboxy-terminal domain RNA polymerase II polypeptide A small phosphatase 1 (Homo sapiens, UniProt Q9GZU7).
T4 sequence (Q9GZU7 whole entry): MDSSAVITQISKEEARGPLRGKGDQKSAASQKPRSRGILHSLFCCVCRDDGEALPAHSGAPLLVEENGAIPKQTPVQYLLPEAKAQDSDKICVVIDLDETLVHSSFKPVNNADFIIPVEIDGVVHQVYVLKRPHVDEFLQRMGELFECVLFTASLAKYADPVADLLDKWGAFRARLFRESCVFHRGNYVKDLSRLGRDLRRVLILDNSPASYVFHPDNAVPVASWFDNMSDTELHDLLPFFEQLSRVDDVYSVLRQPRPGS
Briefly: CTDSP1 inhibitors, concentration-response, biochemical, absorbance readout, ultra-high-throughput screen actives (AID 540297). In kind it is functional.

Test [10] deals with T2, Induced myeloid leukemia cell differentiation protein Mcl-1. In kind it is functional.
The nature of test [11]: NIH3T3 cell viability loss – ATP luminescence, mouse fibroblasts, counter-screen, dose response (AID 2010).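 Also: cells exposed to compound for about 90 hours before reading.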 In kind it is functional, cell-based.
The target of test [12] is Disintegrin and metalloproteinase domain-containing protein 17 (Homo sapiens, UniProt P78536). The test is described as follows: inhibition of ADAM17 substrate cleavage – biochemical, quenched FRET substrate, counter-screen for ADAM10 exosite inhibitor project, dose response (AID 743253).
The nature of test [13]: Trypanosoma cruzi growth suppression in host cells – NIH3T3 host cells, beta-gal luminescence, confirmation (AID 2044).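 Also: intracellular parasites grown in NIH/3T3 mouse fibroblasts as host cells; luminescent beta-galactosidase reporter signal from transgenic T. cruzi replicating inside host cells; inhibitors lower the luminescence signal.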 In kind it is functional, cell-based.
The target in test [14] is Voltage-dependent T-type calcium channel subunit alpha-1H (Homo sapiens, UniProt O95180). In kind it is functional.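 Also: channel activity triggered by adding a high calcium stimulation buffer.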
Test [15] in a line: potency of ADAM10 substrate cleavage blockers – biochemical, QFRET, dose response (AID 743254).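 Also: ADAM10 enzyme with the DM2 quenched FRET peptide as substrate; EDANS fluorescence gain as the protease cuts the substrate; inhibitor potency against ADAM10 proteolytic activity.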
In test [16] the target is T5, Heat shock factor protein 1 (Mus musculus, UniProt P38532).
T5 sequence (P38532 whole entry): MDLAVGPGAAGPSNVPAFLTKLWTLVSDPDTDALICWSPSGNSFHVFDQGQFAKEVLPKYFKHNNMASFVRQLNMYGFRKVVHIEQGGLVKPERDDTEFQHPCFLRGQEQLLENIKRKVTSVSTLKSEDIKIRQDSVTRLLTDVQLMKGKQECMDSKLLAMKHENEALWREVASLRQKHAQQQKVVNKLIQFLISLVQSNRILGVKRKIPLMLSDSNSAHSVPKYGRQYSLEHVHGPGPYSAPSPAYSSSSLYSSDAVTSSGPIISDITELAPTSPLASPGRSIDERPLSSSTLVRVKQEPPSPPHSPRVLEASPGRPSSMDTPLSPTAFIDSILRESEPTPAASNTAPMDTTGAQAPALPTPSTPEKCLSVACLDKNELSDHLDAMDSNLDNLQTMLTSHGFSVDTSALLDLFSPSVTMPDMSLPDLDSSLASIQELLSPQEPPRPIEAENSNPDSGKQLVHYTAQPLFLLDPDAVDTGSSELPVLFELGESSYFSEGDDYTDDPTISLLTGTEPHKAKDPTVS
The test is described as follows: enhancement of HSF1-driven luciferase signal – cell-based, NIH3T3, luminescence, dose retest, confirmation (AID 435004).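 Also: stress induced by proteasome inhibitor MG132 added 30 min after compound; luciferase reporter driven by HSF1 response element in NIH3T3 cells; actives raise luminescence as potentiators of the MG132 stress response.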 In kind it is functional.

Test [17] deals with SWI/SNF-related matrix-associated actin-dependent regulator of chromatin subfamily A member 2 (Homo sapiens, UniProt P51531). The test is described as follows: Luminescence-based cell-based high throughput dose response assay to identify activators of the function of SWI/SNF related, matrix associated, actin dependent regulator of chromatin, subfamily a, member 2 (SMARCA2, BRM). In kind it is functional.

Test [18] can be described thus: Counterscreen for activators of the function of SWI/SNF related, matrix associated, actin dependent regulator of chromatin, subfamily a, member 2 (SMARCA2, BRM): Luminescence-based cell-based high throughput dose response assay to identify non-selective compounds using the VP16 reporter assay. In kind it is functional.
Test [19] is described as follows: viability loss in HEK293 cells – cell-based, plate reader, cherry-picked samples, cytotoxicity control, dose response (AID 743446). In kind it is functional.
Test [20] is described as follows: A549 cell cytotoxicity, dose response, cytotoxicity control, plate reader, cherry-pick, antagonist series (AID 743412). In kind it is functional, cell-based.

T2 sequence (Q07820 whole entry): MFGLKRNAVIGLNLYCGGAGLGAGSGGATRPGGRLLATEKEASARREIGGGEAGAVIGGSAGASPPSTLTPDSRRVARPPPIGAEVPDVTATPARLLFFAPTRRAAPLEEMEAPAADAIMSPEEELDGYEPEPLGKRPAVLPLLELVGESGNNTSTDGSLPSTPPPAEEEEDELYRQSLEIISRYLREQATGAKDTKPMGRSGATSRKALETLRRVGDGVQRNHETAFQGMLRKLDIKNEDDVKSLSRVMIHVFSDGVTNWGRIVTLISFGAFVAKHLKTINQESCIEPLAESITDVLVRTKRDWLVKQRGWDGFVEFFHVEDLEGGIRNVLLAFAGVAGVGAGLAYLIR
T3 sequence (P63165 whole entry): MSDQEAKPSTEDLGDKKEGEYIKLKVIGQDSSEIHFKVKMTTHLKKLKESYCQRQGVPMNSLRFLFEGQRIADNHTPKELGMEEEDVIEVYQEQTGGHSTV
SWI/SNF-related matrix-associated actin-dependent regulator of chromatin subfamily A member 2, sequence (P51531 whole entry): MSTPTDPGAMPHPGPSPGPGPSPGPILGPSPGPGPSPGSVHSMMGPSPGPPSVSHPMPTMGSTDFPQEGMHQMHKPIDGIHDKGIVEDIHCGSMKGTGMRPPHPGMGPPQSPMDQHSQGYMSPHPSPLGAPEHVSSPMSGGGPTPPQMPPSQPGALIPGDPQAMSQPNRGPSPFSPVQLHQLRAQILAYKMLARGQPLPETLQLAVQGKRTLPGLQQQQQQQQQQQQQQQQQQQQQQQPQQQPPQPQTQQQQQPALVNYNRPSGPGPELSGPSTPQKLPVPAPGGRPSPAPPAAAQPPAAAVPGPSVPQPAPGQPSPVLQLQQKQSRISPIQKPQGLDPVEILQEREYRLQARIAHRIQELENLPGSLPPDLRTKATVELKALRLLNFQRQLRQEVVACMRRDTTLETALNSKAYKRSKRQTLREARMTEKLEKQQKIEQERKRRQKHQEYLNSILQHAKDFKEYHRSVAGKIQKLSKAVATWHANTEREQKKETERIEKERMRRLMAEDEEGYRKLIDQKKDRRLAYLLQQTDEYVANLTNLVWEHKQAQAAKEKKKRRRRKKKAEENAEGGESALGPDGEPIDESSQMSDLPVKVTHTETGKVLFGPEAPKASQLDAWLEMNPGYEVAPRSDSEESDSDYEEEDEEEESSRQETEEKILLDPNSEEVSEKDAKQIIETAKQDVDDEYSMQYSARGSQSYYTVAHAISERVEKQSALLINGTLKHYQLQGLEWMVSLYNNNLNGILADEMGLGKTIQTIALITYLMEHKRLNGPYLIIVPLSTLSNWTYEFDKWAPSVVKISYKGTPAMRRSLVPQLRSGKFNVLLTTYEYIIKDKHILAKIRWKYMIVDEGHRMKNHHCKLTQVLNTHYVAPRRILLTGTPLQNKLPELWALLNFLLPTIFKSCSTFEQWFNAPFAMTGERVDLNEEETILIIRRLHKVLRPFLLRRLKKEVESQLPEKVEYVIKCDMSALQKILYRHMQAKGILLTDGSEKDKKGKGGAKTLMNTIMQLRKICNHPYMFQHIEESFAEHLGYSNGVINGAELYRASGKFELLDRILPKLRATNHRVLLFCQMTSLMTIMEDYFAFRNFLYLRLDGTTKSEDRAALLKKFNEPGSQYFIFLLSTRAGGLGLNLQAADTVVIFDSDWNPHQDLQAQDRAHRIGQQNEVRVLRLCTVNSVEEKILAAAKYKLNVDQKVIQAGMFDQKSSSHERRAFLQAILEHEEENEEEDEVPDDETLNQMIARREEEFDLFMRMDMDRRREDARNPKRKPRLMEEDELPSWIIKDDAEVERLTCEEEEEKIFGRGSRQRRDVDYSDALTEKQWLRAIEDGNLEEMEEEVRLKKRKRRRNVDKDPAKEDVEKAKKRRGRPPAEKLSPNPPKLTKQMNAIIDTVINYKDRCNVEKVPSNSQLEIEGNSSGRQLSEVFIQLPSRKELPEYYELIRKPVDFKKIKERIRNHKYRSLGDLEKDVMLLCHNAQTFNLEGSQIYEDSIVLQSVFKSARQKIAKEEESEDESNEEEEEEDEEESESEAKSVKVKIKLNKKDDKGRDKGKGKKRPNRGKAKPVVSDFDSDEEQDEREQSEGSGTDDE
Disintegrin and metalloproteinase domain-containing protein 17, sequence (P78536 whole entry, the tested form may be a part): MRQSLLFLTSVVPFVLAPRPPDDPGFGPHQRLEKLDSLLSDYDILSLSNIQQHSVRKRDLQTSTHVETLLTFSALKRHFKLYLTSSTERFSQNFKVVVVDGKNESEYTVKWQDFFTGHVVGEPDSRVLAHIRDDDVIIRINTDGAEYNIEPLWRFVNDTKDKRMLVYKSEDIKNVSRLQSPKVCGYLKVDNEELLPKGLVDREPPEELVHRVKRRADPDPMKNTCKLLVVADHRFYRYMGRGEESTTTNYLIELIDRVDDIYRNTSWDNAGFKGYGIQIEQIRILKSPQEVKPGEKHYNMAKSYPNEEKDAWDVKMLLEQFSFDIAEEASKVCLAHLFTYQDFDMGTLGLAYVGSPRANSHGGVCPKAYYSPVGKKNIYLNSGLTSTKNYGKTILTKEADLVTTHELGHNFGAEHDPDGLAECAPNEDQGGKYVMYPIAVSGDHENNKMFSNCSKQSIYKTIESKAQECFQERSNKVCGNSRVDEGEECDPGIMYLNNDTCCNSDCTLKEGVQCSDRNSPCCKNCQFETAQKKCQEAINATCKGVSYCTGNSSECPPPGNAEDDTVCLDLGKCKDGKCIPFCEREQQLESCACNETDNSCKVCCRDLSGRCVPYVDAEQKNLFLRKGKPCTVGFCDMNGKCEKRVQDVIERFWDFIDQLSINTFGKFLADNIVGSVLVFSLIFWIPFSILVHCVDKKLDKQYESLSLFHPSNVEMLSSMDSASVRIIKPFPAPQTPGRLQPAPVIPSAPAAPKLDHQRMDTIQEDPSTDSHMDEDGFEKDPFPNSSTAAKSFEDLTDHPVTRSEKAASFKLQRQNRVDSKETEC
Bcl-2-like protein 1, sequence (Q07817 whole entry): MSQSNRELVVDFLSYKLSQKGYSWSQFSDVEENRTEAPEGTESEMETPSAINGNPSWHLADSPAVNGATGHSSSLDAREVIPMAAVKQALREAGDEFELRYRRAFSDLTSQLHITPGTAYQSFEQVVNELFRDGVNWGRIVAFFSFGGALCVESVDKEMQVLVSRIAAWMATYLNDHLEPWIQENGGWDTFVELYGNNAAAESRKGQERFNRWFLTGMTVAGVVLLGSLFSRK

With `CN1C(=O)c2cc(NC(=O)C3CC3)ccc2OC[C@@H]2O[C@H](CC(=O)NC3CCC3)CC[C@H]21`, the AC50 in test [1] is 9.32 µM (active).
For `COc1ccc(NC(=O)N(C)C[C@@H]2OCCCC[C@H](C)Oc3ccc(NC(=O)NC4CCCCC4)cc3C(=O)N([C@H](C)CO)C[C@@H]2C)cc1`, the AC50 in [2] was 18.2 µM (active).
As for `C[C@@H]1CCCCO[C@@H](CN(C)CC2CCCCC2)[C@H](C)CN([C@H](C)CO)C(=O)c2cc(NC(=O)Nc3cccc4ccccc34)ccc2O1`, the AC50 is 13.8 µM (active) in test [1], 14.8 µM (active) in test [3] and 7.47 µM (active) in test [4].
Turning to `Cn1cnnc1SCC(=O)Nc1sc2c(c1C(N)=O)CCC2`, the IC50 is 2.43 µM (active) in [5]; 8.58 µM (active) in test [6]; > 36.3 µM (not active) at Bcl-2-like protein 1; > 66.6 µM (inactive) in test [7]; 13.7 µM (active) in test [8]; 2.77 µM (active) in test [9]. In [10], the IC50 is 3.16 µM (active).
As for `Cc1cccc2cc(CN(Cc3ccco3)C(=O)Nc3cccc(C#N)c3)c(Cl)nc12`, the EC50 in test [11] is 26.5 µM (active); in [13], 1.94 µM (active); in [14], 6.15 µM (active). Moreover, the IC50 in test [12] and in test [15] was > 69.5 µM (inactive) in each case.
As to `N#Cc1c(-c2ccccc2)c(-c2ccccc2)n(Cc2ccco2)c1NC(=O)c1cccs1`, the IC50 in test [12] and in test [15] was > 69.5 µM (inactive) throughout. Also, the EC50 in test [16] is > 260 µM (inactive).
With `CC(C)(C)NC(=O)C(CCc1ccccc1)n1c(=O)c(-c2ccccc2)nc2ccccc21` (configuration not stated), the EC50 in [17] and in test [18] was > 91.1 µM (inactive) in each case.
`C[C@H](CO)N1C[C@H](C)[C@H](CN(C)C(=O)Nc2ccc(C(F)(F)F)cc2)OCCCC[C@H](C)Oc2ccc(NC(=O)CCC(F)(F)F)cc2C1=O`: the concentration at half-maximal activity (AC50) in test [19] was 32.9 µM (active); in test [2] it was 1.29 µM (active); in [20], 35.6 µM (active).
Regarding `CC(=O)Nc1cc(-c2ccc(N3CCN(C)CC3)cc2)cn2c(-c3ccc(F)cc3)cnc12`, the EC50 in [17] and in test [18] was > 91.2 µM (inactive) in each case.
